Holding throughout (experiment): ≥ marks a high value that may be exact or a test limit, other limits are often not marked, values filed in µg/mL are converted to µM
Assay [1] relates to Cronobacter muytjensii ATCC 51329.
In assay [2] the test system is Cronobacter sakazakii ATCC BAA-894.
Assay [3] has as its system Cronobacter sakazakii DPC 6440.
The subject of assay [4] is Cronobacter sakazakii DSM 4485.
The test system of assay [5] is Escherichia coli NCIMB 11843.
The test system of assay [6] is Klebsiella pneumoniae NCIMB 13218.
For assay [7], the system named is Pseudomonas fluorescens NCIMB 9046.
For assay [8], the system named is Salmonella enterica subsp. enterica serovar Typhimurium LT2.
Assay [9] has as its system Staphylococcus aureus NCTC 8325-4.
In assay [10] the test system is Staphylococcus aureus Newman.
For assay [11], the system named is Staphylococcus aureus RF122.
Assay [12] concerns Staphylococcus aureus RN4220.
The subject of assay [13] is Staphylococcus aureus SA113.

Some results are limits rather than exact numbers.

In general, MIC refers to the smallest concentration in the dilution series that meets the test's criterion for growth inhibition. A low value points to greater potency.

For the compound `CC[C@H](C)[C@H](N)C(=O)N[C@@H](Cc1cnc[nH]1)C(=O)N[C@@H](Cc1cnc[nH]1)C(=O)N[C@@H](CCC(N)=O)C(=O)NCC(=O)N[C@@H](CC(C)C)C(=O)N1CCC[C@H]1C(=O)N[C@@H](CCC(N)=O)C(=O)N[C@@H](CCC(=O)O)C(=O)O` [IHHQGLPQE], the MIC in assay [1] is not below 2500 µM; in assay [2], not below 1250 µM; in [3] it was not below 1250 µM; in assay [4], not below 2500 µM; in assay [5] it was not below 2500 µM; in assay [6], not below 2500 µM. The minimal inhibitory concentration (MIC) in assay [7], in [8], in assay [9], in [10], in assay [11] and in assay [12] was not below 2500 µM in each case. In addition, in assay [13], the minimum inhibitory concentration (MIC) is not below 2500 µM.
Regarding `CC[C@H](C)[C@H](N)C(=O)N[C@@H](CCCN=C(N)N)C(=O)N[C@@H](CCCN=C(N)N)C(=O)N[C@@H](CCC(N)=O)C(=O)NCC(=O)N[C@@H](CC(C)C)C(=O)N1CCC[C@H]1C(=O)N[C@@H](CCC(=O)O)C(=O)O` [IRRQGLPE], the minimal inhibitory concentration (MIC) is not below 1250 µM in [1]; not below 1250 µM in assay [2]; not below 1250 µM in assay [3]; not below 1250 µM in [4]; not below 2500 µM in [5]; not below 2500 µM in [6]. In addition, the MIC in assay [7] is not below 1250 µM; in [8], not below 2500 µM; in [9], not below 312 µM; in assay [10], not below 1250 µM; in [11], not below 1250 µM; in assay [12], not below 1250 µM. Further, in assay [13], the minimal inhibitory concentration (MIC) is not below 625 µM.
In the case of `CC(C)C[C@H](NC(=O)CNC(=O)[C@H](CCC(N)=O)NC(=O)[C@H](Cc1cnc[nH]1)NC(=O)[C@@H](N)CCCCN)C(=O)N1CCC[C@H]1C(=O)N[C@@H](CCC(N)=O)C(=O)N[C@@H](CCC(=O)O)C(=O)O` [KHQGLPQE], the MIC in assay [1] was not below 2500 µM; in assay [2], not below 2500 µM; in assay [3], not below 1250 µM; in assay [4], not below 2500 µM; in assay [5] it was not below 1250 µM; in [6], not below 1250 µM. The MIC in [7], in [8], in [9], in assay [10], in assay [11] and in [12] was not below 1250 µM each time. Further, the minimal inhibitory concentration (MIC) in assay [13] was not below 625 µM.
With `CC(C)C[C@H](NC(=O)[C@H](C)NC(=O)[C@H](CC(N)=O)NC(=O)[C@H](CCC(=O)O)NC(=O)[C@H](CC(N)=O)NC(=O)[C@H](CC(C)C)NC(=O)[C@@H](N)C(C)C)C(=O)N[C@@H](CCCN=C(N)N)C(=O)O` [VLNENALR], the minimal inhibitory concentration (MIC) in [1] is not below 2500 µM; in assay [2] it was not below 2500 µM; in assay [3] it was not below 625 µM; in assay [4] it was not below 2500 µM; in assay [5] it was not below 1250 µM; in assay [6] it was not below 1250 µM. Besides, the minimum inhibitory concentration (MIC) in assay [7] was not below 1250 µM; in [8], not below 2500 µM; in assay [9], not below 1250 µM; in assay [10], not below 625 µM; in [11], not below 1250 µM; in [12], not below 1250 µM. The compound also had a minimum inhibitory concentration (MIC) in assay [13] not below 625 µM.
`CC(C)C[C@H](NC(=O)[C@H](CC(C)C)NC(=O)[C@H](CC(N)=O)NC(=O)[C@H](CCC(=O)O)NC(=O)[C@H](CC(N)=O)NC(=O)[C@H](CC(C)C)NC(=O)[C@@H](N)C(C)C)C(=O)O` [VLNENLL]: the MIC was not below 2500 µM in assay [1]; not below 2500 µM in assay [2]; not below 312 µM in [3]; not below 2500 µM in assay [4]; not below 1250 µM in assay [5]; not below 1250 µM in assay [6]. For the same compound, the minimum inhibitory concentration (MIC) in assay [7], in assay [8], in [9], in assay [10], in [11] and in assay [12] was not below 1250 µM throughout. The MIC in [13] was not below 1250 µM.

(Values after DBAASP.)
